# Assay results reported in patent publication US20070117743A1, “New antitumoral compounds” (priority 2003, published 2007).
# Where two headings read alike, the source gives them in different places.
# Assays:
# Format in all cases: cell-based, human
# A-549 = assay: SRB colorimetric assay of cell growth and viability, A-549; conditions: 48 hours exposure; for GI50: read-out: GI50 A-549; for CC50: read-out: LC50 A-549
# SK-MEL-28 = assay: SRB colorimetric assay of cell growth and viability, SK-MEL-28; conditions: 48 hours exposure; for CC50: read-out: LC50 MEL-28
# HT-29 = assay: SRB colorimetric assay of cell growth and viability, HT-29; conditions: 48 hours exposure; for GI50: read-out: GI50 HT-29; for CC50: read-out: LC50 HT-29
# LoVo = assay: SRB colorimetric assay of cell growth and viability, LoVo; conditions: 48 hours exposure; for CC50: read-out: LC50 LOVO
# LoVo-Dox = assay: SRB colorimetric assay of cell growth and viability, LoVo-Dox; conditions: 48 hours exposure; for CC50: read-out: LC50 LOVO-DOX
# Procedure, shortened: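 Optical density at 490 nm of solubilized SRB, from triplicate wells, yields GI, TGI and LC values. Before staining, cells are fixed for 60 minutes at 4° C in cold TCA after a 48-hour exposure.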
# DU-145 = assay: SRB colorimetric assay of cell growth and viability, DU-145; conditions: 48 hours exposure
# LNCaP = assay: SRB colorimetric assay of cell growth and viability, LNCaP; conditions: 48 hours exposure; for GI50: read-out: GI50 LN-caP; for CC50: read-out: LC50 LN-caP
# SK-BR-3 = assay: SRB colorimetric assay of cell growth and viability, SK-BR-3; conditions: 48 hours exposure
# IGROV-1 = assay: SRB colorimetric assay of cell growth and viability, IGROV-1; conditions: 48 hours exposure
# IGROV-ET = assay: SRB colorimetric assay of cell growth and viability, IGROV-ET; conditions: 48 hours exposure; for CC50: read-out: LC50 IGROV-ET
# HeLa = assay: SRB colorimetric assay of cell growth and viability, HeLa; conditions: 48 hours exposure; for CC50: read-out: LC50 HELA
# HeLa-APL = assay: SRB colorimetric assay of cell growth and viability, HeLa-APL; conditions: 48 hours exposure; for CC50: read-out: LC50 HELA-APL
# K-562 = assay: SRB colorimetric assay of cell growth and viability, K-562; conditions: 48 hours exposure; for CC50: read-out: LC50 K-562
# PANC-1 = assay: SRB colorimetric assay of cell growth and viability, PANC-1; conditions: 48 hours exposure; for CC50: read-out: LC50 PANC-1
compound,measurement,setting,value
"C/C=C1\NC(=O)[C@H](Cc2ccccc2)NC(=O)[C@@H](C(C)C)NC(=O)[C@@H]([C@@H](C)CC)NC(=O)[C@H](NC(=O)[C@H](NC(=O)[C@H](CCCN)NC(=O)[C@H]2CCCN2C(=O)[C@H](NC(=O)[C@@H](NC(=O)[C@H](NC(=O)[C@H](NC(=O)CCCC(C)C)C(C)C)[C@H](C)O)C(C)C)C(C)C)[C@@H](C)CC)[C@@H](C)OC(=O)[C@H](C(C)C)NC1=O [Compound 7, [D-Thr^12]-KF]",TGI A-549,A-549,6.77E−06 Molar
same,GI50,A-549,≥ 6.77 µM
same,CC50,A-549,≥ 6.77 µM
same,GI50,SK-MEL-28,≥ 6.77 µM
same,TGI MEL-28,SK-MEL-28,6.77E−06 Molar
same,CC50,SK-MEL-28,≥ 6.77 µM
same,TGI HT-29,HT-29,6.77E−06 Molar
same,GI50,HT-29,≥ 6.77 µM
same,CC50,HT-29,≥ 6.77 µM
same,GI50,LoVo,≥ 6.77 µM
same,TGI LOVO,LoVo,6.77E−06 Molar
same,CC50,LoVo,≥ 6.77 µM
same,GI50,LoVo-Dox,5.14 µM
same,TGI LOVO-DOX,LoVo-Dox,6.77E−06 Molar
same,CC50,LoVo-Dox,≥ 6.77 µM
same,GI50,DU-145,≥ 6.77 µM
same,LC50 (concentration causing 50% net cell kill),DU-145,≥ 6.77 µM
same,TGI DU-145,DU-145,6.77E−06 Molar
same,TGI LN-caP,LNCaP,6.77E−06 Molar
same,GI50,LNCaP,6.04 µM
same,CC50,LNCaP,≥ 6.77 µM
same,GI50,SK-BR-3,≥ 6.77 µM
same,LC50,SK-BR-3,≥ 6.77 µM
same,TGI SK-BR-3,SK-BR-3,6.77E−06 Molar
same,GI50,IGROV-1,≥ 6.77 µM
same,LC50 (concentration causing 50% net cell killing),IGROV-1,≥ 6.77 µM
same,TGI IGROV,IGROV-1,6.77E−06 Molar
same,GI50,IGROV-ET,≥ 6.77 µM
same,TGI IGROV-ET,IGROV-ET,6.77E−06 Molar
same,CC50,IGROV-ET,≥ 6.77 µM
same,GI50,HeLa,≥ 6.77 µM
same,TGI HELA,HeLa,6.77E−06 Molar
same,CC50,HeLa,≥ 6.77 µM
same,GI50,HeLa-APL,≥ 6.77 µM
same,TGI HELA-APL,HeLa-APL,6.77E−06 Molar
same,CC50,HeLa-APL,≥ 6.77 µM
same,GI50,K-562,≥ 6.77 µM
same,TGI K-562,K-562,6.77E−06 Molar
same,CC50,K-562,≥ 6.77 µM
same,GI50,PANC-1,≥ 6.77 µM
same,TGI PANC-1,PANC-1,6.77E−06 Molar
same,CC50,PANC-1,≥ 6.77 µM
"C/C=C1\NC(=O)[C@H](Cc2ccccc2)NC(=O)[C@@H](C(C)C)NC(=O)[C@@H]([C@@H](C)CC)NC(=O)[C@H](NC(=O)[C@H](NC(=O)[C@H](CCCN)NC(=O)[C@H]2CCCN2C(=O)[C@H](NC(=O)[C@@H](NC(=O)[C@@H](NC(=O)[C@H](NC(=O)CCCCC(C)=O)C(C)C)[C@@H](C)O)C(C)C)C(C)C)[C@@H](C)CC)[C@@H](C)OC(=O)[C@H](C(C)C)NC1=O [Compound 27, [6-OHep^14]-KF]",TGI A-549,A-549,6.70E−06 Molar
same,GI50,A-549,6.7 µM
same,CC50,A-549,6.7 µM
same,GI50,SK-MEL-28,6.7 µM
same,TGI MEL-28,SK-MEL-28,6.70E−06 Molar
same,CC50,SK-MEL-28,6.7 µM
same,TGI HT-29,HT-29,6.70E−06 Molar
same,GI50,HT-29,6.7 µM
same,CC50,HT-29,6.7 µM
same,GI50,LoVo,3.5 µM
same,TGI LOVO,LoVo,6.70E−06 Molar
same,CC50,LoVo,6.7 µM
same,GI50,LoVo-Dox,2.14 µM
same,TGI LOVO-DOX,LoVo-Dox,6.70E−06 Molar
same,CC50,LoVo-Dox,6.7 µM
same,GI50,DU-145,6.7 µM
same,LC50 (concentration causing 50% net cell kill),DU-145,6.7 µM
same,TGI DU-145,DU-145,6.70E−06 Molar
same,TGI LN-caP,LNCaP,6.70E−06 Molar
same,GI50,LNCaP,6.7 µM
same,CC50,LNCaP,6.7 µM
same,GI50,SK-BR-3,3.16 µM
same,LC50,SK-BR-3,6.7 µM
same,TGI SK-BR-3,SK-BR-3,6.70E−06 Molar
same,GI50,IGROV-1,6.7 µM
same,LC50 (concentration causing 50% net cell killing),IGROV-1,6.7 µM
same,TGI IGROV,IGROV-1,6.70E−06 Molar
same,GI50,IGROV-ET,6.7 µM
same,TGI IGROV-ET,IGROV-ET,6.70E−06 Molar
same,CC50,IGROV-ET,6.7 µM
same,GI50,HeLa,6.7 µM
same,TGI HELA,HeLa,6.70E−06 Molar
same,CC50,HeLa,6.7 µM
same,GI50,HeLa-APL,6.7 µM
same,TGI HELA-APL,HeLa-APL,6.70E−06 Molar
same,CC50,HeLa-APL,6.7 µM
same,GI50,K-562,6.7 µM
same,TGI K-562,K-562,6.70E−06 Molar
same,CC50,K-562,6.7 µM
same,GI50,PANC-1,6.7 µM
same,TGI PANC-1,PANC-1,6.70E−06 Molar
same,CC50,PANC-1,6.7 µM
"C/C=C1\NC(=O)[C@H](Cc2ccccc2)NC(=O)[C@@H](C(C)C)NC(=O)[C@@H]([C@@H](C)CC)NC(=O)[C@H](NC(=O)[C@H](NC(=O)[C@H](CCCNC(=O)C(F)(F)F)NC(=O)[C@H]2CCCN2C(=O)[C@H](NC(=O)[C@@H](NC(=O)[C@@H](NC(=O)[C@H](NC(=O)CC[C@@H](C)CC)C(C)C)[C@@H](C)O)C(C)C)C(C)C)[C@@H](C)CC)[C@@H](C)OC(=O)[C@H](C(C)C)NC1=O [Compound 96, [Orn(N^δTfa)^8, 4(S)MeHex^14]-Kahalalide F]",TGI A-549,A-549; SRB,2.57E−06 Molar
same,GI50,A-549; SRB,1.26 µM
same,CC50,A-549; SRB,5.23 µM
same,GI50,SK-MEL-28; SRB,1.22 µM
same,TGI MEL-28,SK-MEL-28; SRB,2.15E−06 Molar
same,CC50,SK-MEL-28; SRB,3.77 µM
same,TGI HT-29,HT-29; SRB,2.11E−07 Molar
same,GI50,HT-29; SRB,0.101 µM
same,CC50,HT-29; SRB,0.442 µM
same,GI50,LoVo; SRB,0.14 µM
same,TGI LOVO,LoVo; SRB,2.64E−07 Molar
same,CC50,LoVo; SRB,0.5 µM
same,GI50,LoVo-Dox; SRB,0.153 µM
same,TGI LOVO-DOX,LoVo-Dox; SRB,2.93E−07 Molar
same,CC50,LoVo-Dox; SRB,0.559 µM
same,GI50,DU-145; SRB,0.985 µM
same,LC50 (concentration causing 50% net cell kill),DU-145; SRB,3.81 µM
same,TGI DU-145,DU-145; SRB,1.94E−06 Molar
same,TGI LN-caP,LNCaP; SRB,4.60E−06 Molar
same,GI50,LNCaP; SRB,1.73 µM
same,CC50,LNCaP; SRB,6.35 µM
same,GI50,SK-BR-3; SRB,0.0648 µM
same,LC50,SK-BR-3; SRB,0.56 µM
same,TGI SK-BR-3,SK-BR-3; SRB,1.91E−07 Molar
same,GI50,IGROV-1; SRB,0.184 µM
same,LC50 (concentration causing 50% net cell killing),IGROV-1; SRB,0.607 µM
same,TGI IGROV,IGROV-1; SRB,3.34E−07 Molar
same,GI50,IGROV-ET; SRB,0.178 µM
same,TGI IGROV-ET,IGROV-ET; SRB,3.32E−07 Molar
same,CC50,IGROV-ET; SRB,0.619 µM
same,GI50,HeLa; SRB,0.244 µM
same,TGI HELA,HeLa; SRB,7.24E−07 Molar
same,CC50,HeLa; SRB,2.59 µM
same,GI50,HeLa-APL; SRB,0.686 µM
same,TGI HELA-APL,HeLa-APL; SRB,1.62E−06 Molar
same,CC50,HeLa-APL; SRB,3.82 µM
same,GI50,K-562; SRB,4.5 µM
same,TGI K-562,K-562; SRB,6.35E−06 Molar
same,CC50,K-562; SRB,6.35 µM
same,GI50,PANC-1; SRB,6.04 µM
same,TGI PANC-1,PANC-1; SRB,6.35E−06 Molar
same,CC50,PANC-1; SRB,6.35 µM
